Measurements published in patent US10710968B2 (Hadasit Medical Research Services and Development Ltd., priority 2016, dated 2020).

Tests used:
[1] = tested on: NCI-H1975 cells (EGFR L858R + T790M); assay: Cell growth inhibition, methylene blue assay, NCI-H1975; format: cell-based, human; details: NCI-H1975, Double (L858R + T790M), 72 hours, mean±SD
Procedure: (§1) NCI-H1975 and HCC827 were obtained from the ATCC. QG56 cells were obtained from Prof. Alexander Levitzki's lab, The Silberman Institute of Life Sciences, the Hebrew University, Jerusalem. […] All media were supplemented with fetal bovine serum (FBS, (10%)) and antibiotics (penicillin 10^4 units/L, streptomycin 10 mg/L) (BI, Israel).
(§2) Four human NSCLC cell lines were selected: QG56, HCC827, NCI-H3255 and NCI-H1975. These cell lines harbor the prevailing EGFR variants identified in NSCLC patients, including the wild-type receptor (QG56 cells) and the two most common activating mutations in the TK domain of the receptor: an exon 19 deletion (ΔE746-A750) (HCC827 cells) and the L858R point mutation in exon 21 (NCI-H3255). NCI-H1975 cells were also selected, since on top of the activating L858R point mutation, these cells harbor the secondary T790M mutation in exon 20, which confers resistance to TKI-therapy.
(§3) The median inhibitory concentration (IC50) of the tested compound for cell growth of each cell line was then calculated using GraphPad Prism 5.0 software. Results are presented as mean±SD.

[2] = tested on: NCI-H3255 cells (EGFR L858R point mutation); assay: Cell growth inhibition, methylene blue assay, NCI-H3255; format: cell-based, human; details: NCI-H3255, Activating (L858R point mutation), 72 hours, mean±SD
Procedure: as §1, §2, §3

[3] = tested on: QG56 cells (wt EGFR); assay: Cell growth inhibition, methylene blue assay, QG56; format: cell-based, human; details: QG56, None (wt EGFR), 72 hours, mean±SD
Procedure: as §1, §2, §3

[4] = tested on: HCC827 tumor; assay: PET/CT scans of HCC827 tumor-bearing mice; format: in vivo
Procedure: (§4) Dynamic (1 hour) PET scans are performed using Inveon™ MM PET-CT small animal-dedicated scanner (Siemens Medical Solutions, USA). […] Using image analysis tools, volume of interests (VOIs) are drawn for selected organs based on the PET and CT images, and the kinetics of radioactivity distribution in vivo (time-activity curves, (TACs)) is determined for these organs, and primarily for the NSCLC xenografts. The standardized uptake values (SUVs) of each radiolabeled compound in tumors are calculated and compared between the different tumors.
(§5) In additional PET/CT studies, five QG56 (erlotinib-insensitive) and five HCC827 (erlotinib-sensitive) tumor-bearing mice were scanned for 60 minutes following i.v. injection of [^18F]6-O-FEE (7.14±0.7 Mbq).

[5] = tested on: QG56 tumor; assay: PET/CT scans of QG56 tumor-bearing mice; format: in vivo; details: QG56 tumors, 60 minutes after i.v. injection
Procedure: as §4, §5

[6] = Stability of the final formulation in solution (radio-TLC and HPLC); format: physicochemical; details: final formulation (ethanol/isotonic saline)
Procedure: In brief, a solution of ethylene 1,2-(bis) tosylate (11-13 mg) dissolved in anhydrous MeCN ([…]) was added to the dried [^18F]fluoride. The reaction is heated to 120° C. while stirring for 10 minutes, and the reaction mixture was thereafter cooled to 50° C. The ^18F-fluoroethyltosylate was then further diluted with 1 mL MeCN and transferred to a second reactor that was pre-stirred and heated under argon stream for 5 minutes with 9-11 mg of desmethylerlotinib dissolved in 0.6 mL of DMF and 6-8 mg of NaH. […]
The radiochemical purity was determined using analytical HPLC equipped with C18 analytical Luna column (5 μm, 4.6 mm>250 mm, Luna, phenomenex, Torrance, Calif., USA), with a variable wavelength UV detector operated at λ=254 nm, and a radioactivity detector with NaI crystals, and was routinely greater than 98%. […] Solvent residues were analyzed by GC, using a 1 μL injection of the final product, and compared to a standard solution containing 0.04% acetonitrile and 0.5% acetone. […]

Row | IC50 [1] [µM] | IC50 [2] [µM] | higher uptake in HCC827 tumors compared to QG56 tumors ([4]; 60 minutes after i.v. injection, mice, p=0.0072) [fold] | tumor SUV ([4]; HCC827 tumor-bearing mice, erlotinib in excess (6.1±0.3 mg/kg) 10 minutes prior to injection) | tumor SUV ([4]; HCC827 tumor-bearing mice, without erlotinib pre-administration (blocking comparison)) | tumor SUV ([4]; HCC827 tumors, 60 minutes after i.v. injection, mice) | higher uptake in HCC827 tumor compared to NCI-H1975 tumor ([4]; preliminary PET/CT study, i.v. injection, 60 minutes scan, mice) | tumor SUV [5] | Compound | IC50 [3] [µM] | reduction of tumor SUV by erlotinib in excess ([4]; HCC827 tumor-bearing mice, erlotinib 6.1±0.3 mg/kg 10 minutes prior, p=0.018) | stability in solution [6]
1 | 3.6 ± 1 | 0.033 ± 0.04 |  |  |  |  |  |  | C#Cc1cccc(Nc2ncnc3cc(OCCOC)c(OCCF)cc23)c1 [6-O-FEE, 6-O-fluoroethylerlotinib] | 14.4 ± 5 |  | 
2 |  |  | 2.5 | 0.414 | 0.704 | 0.70 | 2.5-3 fold | 0.28 | C#Cc1cccc(Nc2ncnc3cc(OCCOC)c(OCC[18F])cc23)c1 [[^18F]6-O-FEE, [^18F]6-fluoroethylerlotinib] |  | about 40% | remained stable in solution for over four hours
